Laboratory results reported in patent publication US9458194B2, “Compounds useful in the treatment and/or care of the skin and their cosmetic or pharmaceutical compositions” (Lubrizol Advanced Materials, Inc., priority 2013, dated 2016).
Values joined by “and” are separate entries in the source; they are usually repeats but may differ in a detail not shown here. Identical values can stand only once.

Columns and labels:
[1] = test system: human LOXL1 gene promoter; assay: Luminescence assay of human LOXL1 gene promoter activation (Renilla luciferase); type: cell-based; conditions: 16-24 hours
Experimental: The effect of the compounds of the invention on the activity of the fibulin-5 and LOXL1 promoters was studied and compared to the levels of basal expression of the untreated cells (negative control) and with the effect of Interleukin-1β (IL-1β) in the same conditions.
Cells from an epithelial cell line doubly transfected with fibulin-5 and LOXL1 human promoters in which the luciferase gene is under the regulatory control of said promoters (4×10^4 cells/well) were seeded in a white plate and in a 96-well transparent plate, both treated with polylysine, and were incubated in Dulbecco's Modified Eagle Medium (DMEM-Glutamax™), with 10% of FBS, 1% Penicillin-Streptomycin (P/S), 1 mg/ml of Geneticin® (G418) and […] at 37° C. in at atmosphere with 5% CO2. After the incubation, the cells were incubated for 6 hours at 37° C. in at atmosphere with 5% CO2 with DMEM without serum. Then, this medium was removed and the cells were treated with different compounds at 0.1 mg/ml, 0.5 mg/ml, 1 mg/ml or 2 mg/mL in DMEM/1% FBS for 16-24 hours. As a positive control to activate the fibulin-5 and LOXL1 promoters 10 ng/ml of IL-1β were used and as a negative control untreated cells were used, just with DMEM/1% FBS. The incubations and treatments were carried out in parallel in the white plate and the transparent plate and in triplicate for each condition. After the treatment, the relative light units per second were determined (RLU/s) in the white plate by means of consecutive quantification of the activities of Firefly luciferase (fibulin-5 promoter) and Renilla luciferase (LOXL1 promoter), and the number of total cells/well in the transparent plate by means of staining with Crystal Violet (CV). To determine the Firefly and Renilla luciferase activities the Dual-Glo Luciferase Assay System kit by Promega was used. The cells were briefly lysed and the Firefly luciferase substrate was added. After incubating for 10 min at 25° C., the RLU/s were quantified by luminescence reader (Lumistar-BMG). Then the Firefly signal was extinguished and the Renilla luciferase substrate was added. After incubating for 5 min at 25° C., the RLU/s were quantified by the same luminescence reader. With regard to the determination of the total number of cells by Crystal Violet, the CV dyes the DNA of the cells and the quantity of dye taken by the cells can be measured in an absorbency reader at 630 nm (Multiskan Ascent). The color obtained is directly proportional to the total number of cells per well. The cells were briefly incubated with 0.05% CV plus 4% Formalin for 20 minutes and after several washes with Milli-Q water, the cells were left to dry for 1-2 hours and then 0.1 M of HCl was added for its immediate reading. The RLU/s of the luciferases corresponding to each promoter were normalized by the average of the total number of cells per condition. Three independent assays with 3 measurements per assay were carried out for Ac-L-Asp-L-Val-L-Lys-L-Tyr-OH at 0.1 mg/mL and 1 mg/mL. 1 assay with 3 measurements was carried out for the other compounds and concentrations.
The increase in the activity of the promoters with regard to the levels of expression of the negative control was determined.

[2] = test system: type-I collagen; assay: Type-I collagen synthesis in human dermal fibroblasts (ELISA); type: cell-based; conditions: 0.01 μg/ml, 48 hours, vs negative control
Experimental: Stimulation of type-I collagen synthesis induced by cosmetic active ingredients was assessed by means of an ELISA (Enzyme-Linked Immunosorbent Assay) method.
Human dermal fibroblasts were trypsinized and seeded at a density of 5×10^4 cells/well in 48-well plates. After 24 hours of incubation at 37° C., 5% CO2, with a humidified atmosphere, a new medium was added with 0.01 μg/mL Ac-L-Asp-L-Val-L-Lys-L-Tyr-OH. Untreated cells were used as negative controls. The cells were incubated for an additional 48 hours at 37° C., 5% CO2, with humidified atmosphere. Subsequently, the medium was collected from each well to be analyzed by ELISA. A calibration curve with type-I collagen was prepared (Sigma) and the dilutions of this calibration curve were transferred to 96-well plates together with the mediums collected from the cells. The plates were left at 4° C. in a humid atmosphere for one night. Next the wells were washed three times with a washing solution prepared with PBS at 0.05% of Tween-20 (Sigma) and then any non-specific binding of the primary antibody with a solution of PBS at 3% BSA (sigma) was blocked. […] The reaction was stopped adding a solution of H2SO4 3 M and the absorbency reading was carried out at a wave length of 490 nm in a TECAN GENios spectrophotometric reader. […]

## Ac-L-Asp-L-Val-L-Lys-L-Tyr-OH (Ac-DVKY-OH)
[1]; 0.1 mg/mL
  Increase in the activity of the human promoter of the LOXL1 gene with regard to the negative control: 7.12%
[1]; 1 mg/mL
  Increase in the activity of the human promoter of the LOXL1 gene with regard to the negative control: 27% and 27.06%
[1]; 2 mg/mL
  Increase in the activity of the human promoter of the LOXL1 gene with regard to the negative control: 10.41%
[2]
  INCREASE IN SYNTHESIS OF TYPE-I COLLAGEN: 47.3%
